# The NIST ThermoML archive (doi:10.1021/je3006985)
# ± gives the expanded uncertainty stated by the source.
# Columns and labels:
# [1] = mn = molality of the nth substance listed, in mol/kg; details: 298.15 K, 101 kPa, Liquid
# [2] = osmotic coefficient (dimensionless); mn = molality of the nth substance listed, in mol/kg; details: 298.15 K, Liquid, Vapor Pressure Osmometer (Knaur K-7000)
structure (smiles),measurement,setting,value
CCN(CC)CC(=O)Nc1c(C)cccc1C.Cl [lidocaine hydrochloride] + O,mass density,[1]; m1 = 0.01004,997.37 ± 0.091 kg/m3
same,mass density,[1]; m1 = 0.02018,997.713 ± 0.091 kg/m3
same,mass density,[1]; m1 = 0.02958,998.034 ± 0.091 kg/m3
same,mass density,[1]; m1 = 0.03474,998.184 ± 0.091 kg/m3
same,mass density,[1]; m1 = 0.03911,998.35 ± 0.091 kg/m3
same,mass density,[1]; m1 = 0.04409,998.51 ± 0.09 kg/m3
same,mass density,[1]; m1 = 0.04809,998.641 ± 0.09 kg/m3
same,mass density,[1]; m1 = 0.05588,998.887 ± 0.091 kg/m3
same,mass density,[1]; m1 = 0.07017,999.384 ± 0.09 kg/m3
same,mass density,[1]; m1 = 0.09322,1000.14 ± 0.09 kg/m3
same,mass density,[1]; m1 = 0.1151,1000.85 ± 0.09 kg/m3
same,mass density,[1]; m1 = 0.141,1001.69 ± 0.09 kg/m3
same,mass density,[1]; m1 = 0.1712,1002.65 ± 0.09 kg/m3
same,mass density,[1]; m1 = 0.188,1003.15 ± 0.09 kg/m3
same,mass density,[1]; m1 = 0.2082,1003.81 ± 0.09 kg/m3
same,mass density,[1]; m1 = 0.2386,1004.84 ± 0.09 kg/m3
same,mass density,[1]; m1 = 0.2675,1005.71 ± 0.09 kg/m3
same,mass density,[1]; m1 = 0.2906,1006.37 ± 0.09 kg/m3
same,mass density,[1]; m1 = 0.3089,1006.95 ± 0.1 kg/m3
same,mass density,[1]; m1 = 0.3399,1007.94 ± 0.1 kg/m3
same,mass density,[1]; m1 = 0.3919,1009.45 ± 0.1 kg/m3
same,mass density,[1]; m1 = 0.4432,1011.03 ± 0.1 kg/m3
same,mass density,[1]; m1 = 0.4982,1012.71 ± 0.1 kg/m3
same,osmotic coefficient,[2]; m1 = 0.01004,0.879 ± 0.005
same,osmotic coefficient,[2]; m1 = 0.02018,0.83 ± 0.007
same,osmotic coefficient,[2]; m1 = 0.02958,0.807 ± 0.007
same,osmotic coefficient,[2]; m1 = 0.03474,0.8 ± 0.008
same,osmotic coefficient,[2]; m1 = 0.03911,0.796 ± 0.008
same,osmotic coefficient,[2]; m1 = 0.04409,0.793 ± 0.008
same,osmotic coefficient,[2]; m1 = 0.04809,0.792 ± 0.008
same,osmotic coefficient,[2]; m1 = 0.05588,0.792 ± 0.008
same,osmotic coefficient,[2]; m1 = 0.07017,0.796 ± 0.008
same,osmotic coefficient,[2]; m1 = 0.09322,0.805 ± 0.008
same,osmotic coefficient,[2]; m1 = 0.1151,0.812 ± 0.007
same,osmotic coefficient,[2]; m1 = 0.141,0.813 ± 0.007
same,osmotic coefficient,[2]; m1 = 0.1712,0.805 ± 0.008
same,osmotic coefficient,[2]; m1 = 0.188,0.797 ± 0.008
same,osmotic coefficient,[2]; m1 = 0.2082,0.785 ± 0.008
same,osmotic coefficient,[2]; m1 = 0.2386,0.765 ± 0.009
same,osmotic coefficient,[2]; m1 = 0.2675,0.748 ± 0.01
same,osmotic coefficient,[2]; m1 = 0.2906,0.736 ± 0.01
same,osmotic coefficient,[2]; m1 = 0.3089,0.728 ± 0.011
same,osmotic coefficient,[2]; m1 = 0.3399,0.72 ± 0.011
same,osmotic coefficient,[2]; m1 = 0.3919,0.718 ± 0.011
same,osmotic coefficient,[2]; m1 = 0.4432,0.72 ± 0.011
same,osmotic coefficient,[2]; m1 = 0.4982,0.696 ± 0.012
CCN(CC)CCOC(=O)c1ccc(N)cc1.Cl [2-diethylaminoethyl p-aminobenzoate hydrochloride] + O,mass density,[1]; m1 = 0.0158,997.809 ± 0.1 kg/m3
same,mass density,[1]; m1 = 0.01893,997.979 ± 0.096 kg/m3
same,mass density,[1]; m1 = 0.02475,998.219 ± 0.096 kg/m3
same,mass density,[1]; m1 = 0.03023,998.477 ± 0.098 kg/m3
same,mass density,[1]; m1 = 0.03265,998.609 ± 0.096 kg/m3
same,mass density,[1]; m1 = 0.03891,998.872 ± 0.096 kg/m3
same,mass density,[1]; m1 = 0.04358,999.105 ± 0.098 kg/m3
same,mass density,[1]; m1 = 0.04823,999.338 ± 0.097 kg/m3
same,mass density,[1]; m1 = 0.05787,999.774 ± 0.096 kg/m3
same,mass density,[1]; m1 = 0.0712,1000.37 ± 0.1 kg/m3
same,mass density,[1]; m1 = 0.09584,1001.52 ± 0.1 kg/m3
same,mass density,[1]; m1 = 0.1165,1002.46 ± 0.1 kg/m3
same,mass density,[1]; m1 = 0.1438,1003.64 ± 0.1 kg/m3
same,mass density,[1]; m1 = 0.1749,1005.05 ± 0.1 kg/m3
same,mass density,[1]; m1 = 0.1973,1005.94 ± 0.11 kg/m3
same,mass density,[1]; m1 = 0.2187,1007.01 ± 0.11 kg/m3
same,mass density,[1]; m1 = 0.2457,1008.14 ± 0.11 kg/m3
same,mass density,[1]; m1 = 0.2791,1009.54 ± 0.11 kg/m3
same,mass density,[1]; m1 = 0.2997,1010.41 ± 0.11 kg/m3
same,mass density,[1]; m1 = 0.3205,1011.32 ± 0.12 kg/m3
same,mass density,[1]; m1 = 0.3523,1012.67 ± 0.12 kg/m3
same,mass density,[1]; m1 = 0.4061,1014.95 ± 0.12 kg/m3
same,mass density,[1]; m1 = 0.4613,1016.97 ± 0.13 kg/m3
same,mass density,[1]; m1 = 0.517,1019.21 ± 0.14 kg/m3
same,osmotic coefficient,[2]; m1 = 0.0158,0.885 ± 0.005
same,osmotic coefficient,[2]; m1 = 0.01893,0.873 ± 0.005
same,osmotic coefficient,[2]; m1 = 0.02475,0.856 ± 0.006
same,osmotic coefficient,[2]; m1 = 0.03023,0.843 ± 0.006
same,osmotic coefficient,[2]; m1 = 0.03265,0.838 ± 0.006
same,osmotic coefficient,[2]; m1 = 0.03891,0.827 ± 0.007
same,osmotic coefficient,[2]; m1 = 0.04358,0.82 ± 0.007
same,osmotic coefficient,[2]; m1 = 0.04823,0.814 ± 0.007
same,osmotic coefficient,[2]; m1 = 0.05787,0.804 ± 0.008
same,osmotic coefficient,[2]; m1 = 0.0712,0.794 ± 0.008
same,osmotic coefficient,[2]; m1 = 0.09584,0.781 ± 0.008
same,osmotic coefficient,[2]; m1 = 0.1165,0.772 ± 0.009
same,osmotic coefficient,[2]; m1 = 0.1438,0.759 ± 0.009
same,osmotic coefficient,[2]; m1 = 0.1749,0.741 ± 0.01
same,osmotic coefficient,[2]; m1 = 0.1973,0.727 ± 0.011
same,osmotic coefficient,[2]; m1 = 0.2187,0.713 ± 0.011
same,osmotic coefficient,[2]; m1 = 0.2457,0.694 ± 0.012
same,osmotic coefficient,[2]; m1 = 0.2791,0.673 ± 0.013
same,osmotic coefficient,[2]; m1 = 0.2997,0.661 ± 0.013
same,osmotic coefficient,[2]; m1 = 0.3205,0.65 ± 0.014
same,osmotic coefficient,[2]; m1 = 0.3523,0.636 ± 0.014
same,osmotic coefficient,[2]; m1 = 0.4061,0.62 ± 0.015
same,osmotic coefficient,[2]; m1 = 0.4613,0.609 ± 0.015
same,osmotic coefficient,[2]; m1 = 0.517,0.587 ± 0.016
CCCCNc1ccc(C(=O)OCCN(C)C)cc1.Cl + O,mass density,[1]; m1 = 0.01696,997.722 ± 0.094 kg/m3
same,mass density,[1]; m1 = 0.0205,997.869 ± 0.095 kg/m3
same,mass density,[1]; m1 = 0.02526,998.076 ± 0.094 kg/m3
same,mass density,[1]; m1 = 0.0301,998.265 ± 0.093 kg/m3
same,mass density,[1]; m1 = 0.03454,998.444 ± 0.093 kg/m3
same,mass density,[1]; m1 = 0.03897,998.614 ± 0.093 kg/m3
same,mass density,[1]; m1 = 0.04254,998.764 ± 0.094 kg/m3
same,mass density,[1]; m1 = 0.04793,998.98 ± 0.094 kg/m3
same,mass density,[1]; m1 = 0.05807,999.405 ± 0.093 kg/m3
same,mass density,[1]; m1 = 0.06741,999.767 ± 0.092 kg/m3
same,mass density,[1]; m1 = 0.07521,1000.07 ± 0.09 kg/m3
same,mass density,[1]; m1 = 0.08589,1000.49 ± 0.09 kg/m3
same,mass density,[1]; m1 = 0.09567,1000.88 ± 0.09 kg/m3
same,mass density,[1]; m1 = 0.1161,1001.66 ± 0.09 kg/m3
same,mass density,[1]; m1 = 0.1436,1002.67 ± 0.09 kg/m3
same,mass density,[1]; m1 = 0.1726,1003.78 ± 0.09 kg/m3
same,mass density,[1]; m1 = 0.1924,1004.46 ± 0.09 kg/m3
same,mass density,[1]; m1 = 0.2427,1006.27 ± 0.1 kg/m3
same,mass density,[1]; m1 = 0.3009,1008.22 ± 0.1 kg/m3
same,mass density,[1]; m1 = 0.3479,1009.67 ± 0.1 kg/m3
same,mass density,[1]; m1 = 0.4005,1011.44 ± 0.1 kg/m3
same,osmotic coefficient,[2]; m1 = 0.01696,0.896 ± 0.004
same,osmotic coefficient,[2]; m1 = 0.0205,0.884 ± 0.005
same,osmotic coefficient,[2]; m1 = 0.02526,0.871 ± 0.005
same,osmotic coefficient,[2]; m1 = 0.0301,0.858 ± 0.006
same,osmotic coefficient,[2]; m1 = 0.03454,0.848 ± 0.006
same,osmotic coefficient,[2]; m1 = 0.03897,0.839 ± 0.006
same,osmotic coefficient,[2]; m1 = 0.04254,0.832 ± 0.007
same,osmotic coefficient,[2]; m1 = 0.04793,0.822 ± 0.007
same,osmotic coefficient,[2]; m1 = 0.05807,0.805 ± 0.008
same,osmotic coefficient,[2]; m1 = 0.06741,0.79 ± 0.008
same,osmotic coefficient,[2]; m1 = 0.07521,0.778 ± 0.009
same,osmotic coefficient,[2]; m1 = 0.08589,0.762 ± 0.009
same,osmotic coefficient,[2]; m1 = 0.09567,0.747 ± 0.01
same,osmotic coefficient,[2]; m1 = 0.1161,0.716 ± 0.011
same,osmotic coefficient,[2]; m1 = 0.1436,0.672 ± 0.013
same,osmotic coefficient,[2]; m1 = 0.1726,0.622 ± 0.015
same,osmotic coefficient,[2]; m1 = 0.1924,0.587 ± 0.016
same,osmotic coefficient,[2]; m1 = 0.2427,0.498 ± 0.019
same,osmotic coefficient,[2]; m1 = 0.3009,0.411 ± 0.023
same,osmotic coefficient,[2]; m1 = 0.3479,0.367 ± 0.025
same,osmotic coefficient,[2]; m1 = 0.4005,0.363 ± 0.025
